The text below walks through data of patent US4402964A, “N-Aryl-N'-(3-methyl or ethyl-4-oxothiazolidinylidene)ureas useful for the treatment of epilepsy” (McNeilab, Inc., priority 1981, dated 1983).

Broadly, the ED50 is the dose at which the effect has come halfway, by size or by number of responders.

The test system of this assay is tonic extensor seizure caused by applying an electric shock to mice via corneal electrodes. As to the kind of experiment: Maximal Electroshock (MES) test in mice (anticonvulsant activity). The assay is classed as in vivo. On the set-up: key to Mice MES test results (IA): IA: inactive. The settings on record: for ED50: Mus musculus, po, read-out: ED50, Mice MES test results dose (50% of the animals show a block of tonic extensor convulsions). The text has this: Activity in the MES test, indicating anticonvulsant activity, is characterized by a block of the tonic extensor seizure caused by applying an electric shock to mice via corneal electrodes as described in Swinyard et al., J. Pharmacol. Exp. Ther., 106, 319-330 (1952) and recorded as % block. A more recent description of current practice in anticonvulsant drug screening has also been reported by Swinyard et al., Epilepsia, 19, 409-428 (1978).
In said table, the ED50 result means that 50% of the animals show a block of tonic extensor convulsions in the MES test.
(The maximal electroshock test induces tonic seizures with an electrical stimulus.)

Setting [1] is: 10 mg/kg p.o., mice, only dose available.

Consider `Cc1cccc(C)c1NC(=O)N=C1SCC(=O)N1C` [Example I, N-(2,6-dimethylphenyl)-N'-(3-methyl-4-oxo-2-thiazolidinylidene)urea], for which the ED50 (mice, p.o.) turned out to be 9.96 mg/kg. In the case of `CN1C(=O)CSC1=NC(=O)Nc1c(Cl)cccc1Cl` [Example II, N-(2,6-dichlorophenyl)-N'-(3-methyl-4-oxo-2-thiazolidinylidene)urea], for the setting “mice, p.o.”, the ED50 is 28.3 mg/kg.

On to `O=C1CSC(=NC(=O)Nc2ccccc2)N1` [Example X-888, reference compound], for which the “Mice MES test results (activity in words)” value (200 mg/kg p.o.) is given as “not active”. Besides, where the note is “200 mg/kg p.o., mice”, the “Mice MES test results (IA)” value is recorded as “IA”. Consider `CN1C(=O)CSC1=NC(=O)Nc1c(F)cccc1F` [Example X], for which the ED50 (mice, p.o.) is 52.2 mg/kg. Regarding `CCc1cccc(C)c1NC(=O)N=C1SCC(=O)N1C` [III], under setting [1], the “% block (MES test)” value worked out at 10% and the “Mice MES test results (activity in words)” value is “Active”.

For the compound `Cc1cccc(Cl)c1NC(=O)N=C1SCC(=O)N1C` [IV, N-(2-chloro-6-methylphenyl)-N'-(3-methyl-4-oxo-2-thiazolidinylidene)urea], the median effective dose (ED50) (mice, p.o.) worked out at 28.5 mg/kg.

Take `COc1cccc(OC)c1NC(=O)N=C1SCC(=O)N1C` [IX]: the ED50 (mice, p.o.) was 35.7 mg/kg. For the compound `Cc1cccc(C)c1NC(=O)N=C1NC(=O)CS1` [McN-4241, reference compound], the ED50 (mice, p.o.) is 242 mg/kg. The “ED50 range, Mice MES test results” value (mice, p.o., range printed in parentheses with the ED50) lay within 196.5 to 296.9 mg/kg. Regarding `O=C1CSC(=NC(=O)Nc2c(Cl)cccc2Cl)N1` [McN-4242, reference compound], the “Mice MES test results (IA)” value (200 mg/kg p.o., mice) is reported as “IA”. As to `Cc1cccc(NC(=O)N=C2SCC(=O)N2C)c1C` [VIII], the ED50 (mice, p.o.) is 128 mg/kg. For the compound `CN1C(=O)CSC1=NC(=O)Nc1c(Br)cccc1Br` [VII], for the setting “mice, p.o.”, the ED50 came to 83.9 mg/kg.

In the case of `CN1C(=O)CSC1=NC(=O)Nc1c(Br)cc(F)cc1Br` [VI], for the setting “200 mg/kg p.o.”, the “Mice MES test results (activity in words)” value is “Active”. Besides, the “% block (MES test)” value (200 mg/kg p.o., mice) came to 60%. Consider `CCc1cccc(CC)c1NC(=O)N=C1SCC(=O)N1C` [V], for which the ED50 (mice, p.o.) worked out at 17.5 mg/kg.
